Reference: US11541029B2, “High penetration compositions and their applications” (Techfields Pharma Co., Ltd., priority 2008, dated 2023)

Experiments:
[1] = tested on: Human breast cancer cells (BCAP-37); experiment: Human breast cancer xenograft in nude mice
Description: Human breast cancer cells (BCAP-37, 2-3 mm^3 of tumor tissue was used in each mouse) were subcutaneously xenografted into nude mice (BALB, 12 groups, 7 mice each group). […] 50 μl of 5% (equal to 2.5 mg of the HPCs) diethylaminoethyl acetylsalicylate.HCl (P-1, in pure water); 1-piperidinepropyl 2[(2,6-dichlorophenyl)amino]benzene acetate.HCl (P-2, in water), 1-pyrrolidinepropyl 2-(3-benzoylphenyl) propionate.HCl (P-3, in water), 4-piperidinemethyl 2-(3-phenoxyphenyl)propionate.HCl (P-4, in water), 3-piperidinemethyl 2-(ρ-isobutylphenyl) propionate.HCl (P-5, in water), diethylaminoethyl 1-(p-chlorobenzoyl)-5-methoxy-2-methylindole 3-acetate.HCl (P-11, in water), 2-(4-morpholinyl)ethyl (Z)-5-fluoro-2-methyl-1-[(4-methylsulfinyl)phenylmethylene]-1H-indene-3-acetate.

[2] = tested on: Human colon cancer cells (LS174J); experiment: Human colon cancer xenograft in nude mice
Description: Human colon cancer cells (LS174J, 2-3 mm^3 of tumor tissue was used in each mouse) were subcutaneously xenografted into nude mice (BALB).

[3] = tested on: Human Gastric Cancer HGC-27 cell; experiment: HGC-27 cell proliferation, MTT assay; assay type: cell-based; settings: 72 hours
Description: The inhibition of cellular proliferation was measured by the modified dimethyl thiazolyl diphenyl tetrazolium salt (MTT) [3-(4,5-dimethylthiazol-2-yl)-2,5-diphenyltetrazolium bromide] assay, based on the ability of live cells to converting thiazolyl blue to dark blue formazan. Approximately 3500 cells of HGC-27 (in 100 μl culture solution) were seeded into 96-well culture plates and were cultured for 16 hours at 37° C. Different concentration solution (100 μl) of Taxol (positive control), chlorambucil, or N,N-diethylaminoethyl 4-[bis(2-chloroethyl)amino]benzenebutyrate.HCl salt (HPC of chlorambucil) were added and incubation continued for 72 hours at 37° C. Then MTT were added and incubation continued at 37° C. for 4 h, and 100 μl DMSO was pipetted to solubilize the formazan product for 30 min at room temperature. The absorbency at 570 nm was measured using Bio-Rad micro-plate reader […].

[4] = 50 μl of 5% topically every 8 hours
[5] = about 50 μl of 5% topically every 12 hours

Row | Weight of mice at day 42 ([1]; in vivo) | Weight of mice at day 30 ([2]; in vivo) | Compound | tumor Size at day 42 [1, 4] [mm^3] | Weight of mice at day 42 ([1]; 50 μl of 5% topically every 8 hours, in g (unit assumed)) | Weight of mice at day 30 [2, 5] | tumor Size at day 30 [2, 5] [mm^3] | HGC-27 cell growth inhibition rate ([3]; 0.5 μM) [%] | HGC-27 cell growth inhibition rate ([3]; 2.0 μM) [%] | HGC-27 cell growth inhibition rate ([3]; 5.0 μM) [%] | HGC-27 cell growth inhibition rate ([3]; 25 μM) [%] | HGC-27 cell growth inhibition rate ([3]; 50 μM) [%] | HGC-27 cell growth inhibition rate ([3]; 75 μM) [%] | HGC-27 cell growth inhibition rate ([3]; 100 μM) [%] | HGC-27 cell growth inhibition rate ([3]; 200 μM) [%] | HGC-27 cell growth inhibition rate ([3]; 500 μM) [%]
1 | – | – | Cl.O=C(Cc1ccccc1Nc1c(Cl)cccc1Cl)OCCCN1CCCCC1 [P-2, 1-piperidinepropyl 2[(2,6-dichlorophenyl)amino]benzene acetate.HCl] | 160 ± 50 | 23 ± 2 | 22 ± 2 | 520 ± 170 | – | – | – | – | – | – | – | – | –
2 | 22 ± 3 | 23 ± 2 | CC(C(=O)OCCCN1CCCC1)c1cccc(C(=O)c2ccccc2)c1.Cl (stereo not drawn) [P-3, 1-pyrrolidinepropyl 2-(3-benzoylphenyl) propionate.HCl] | 210 ± 60 | – | – | 550 ± 190 | – | – | – | – | – | – | – | – | –
3 | – | – | CCN(CC)CCOC(=O)CCCc1ccc(N(CCCl)CCCl)cc1.Cl [HPC of chlorambucil, N,N-diethylaminoethyl 4-[bis(2-chloroethyl)amino]benzenebutyrate.HCl salt] | – | – | – | – | 15.6 | 28.7 | 42.1 | 61.6 | 82.1 | 96.5 | 98.1 | 97.2 | 98.2
4 | 23 ± 3 | 22 ± 3 | CC(C(=O)OCC1CCNCC1)c1cccc(Oc2ccccc2)c1.Cl (stereo not drawn) [P-4, 4-piperidinemethyl 2-(3-phenoxyphenyl)propionate.HCl] | 190 ± 55 | – | – | 550 ± 128 | – | – | – | – | – | – | – | – | –
